From patent US20210330611A1, “THERAPY FOR NEUROLOGICAL DISEASES/DISORDERS” (priority 2020, published 2021)
Where two headings read alike, the source gives them in different places.

Tests used:
[1] = test system: fibrin-induced microglia activation; assay: Image-based assay of fibrin-induced microglia activation (HTS and dose response); type: cell-based, rat; conditions: for inhibition at 10 µM: Rattus norvegicus, Microglia, read-out: Fibrin % inhibition
[2] = test system: LPS-induced microglia activation; assay: Image-based assay of LPS-induced microglia activation (HTS and dose response); type: cell-based, rat; conditions: for inhibition at 10 µM: Rattus norvegicus, Microglia, read-out: LPS % inhibition
[3] = test system: fibrin- and LPS-induced microglia activation; assay: cells; type: cell-based, rat
primary rat microglia [4] = assay: Cell toxicity (dead cells, size <150 μm2) in LPS assay
primary rat microglia [5] = assay: Cell toxicity (dead cells, size <150 μm2) in coated fibrin (cFib) assay;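 also: share of dead cells sized under 150 µm2 at 10 µM in fibrin-stimulated microglia HTS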
[6] = primary HTS, 10 μM, fibrin-stimulated primary microglia
[7] = primary HTS, 10 μM, LPS-stimulated primary microglia
[8] = primary HTS, 10 μM, LPS assay, dead cells size <150 μm2
[9] = primary HTS, 10 μM, fibrin assay, dead cells size <150 μm2
[10] = primary microglia HTS, fibrin stimulation, increased cell size (>800 μm^2) as marker of activation
[11] = primary microglia HTS, LPS stimulation, increased cell size (>800 μm^2) as marker of activation
[12] = quadrant by fibrin and LPS inhibition in HTS of 1907 compounds
[13] = primary microglia HTS, LPS stimulation, decreased size (<150 μm^2) as marker of toxicity
[14] = primary microglia HTS, fibrin stimulation, decreased size (<150 μm^2) as marker of toxicity

Compound	inhibition at 10 µM [1, 6] [%]	inhibition at 10 µM [2, 7] [%]	Quadrant (FIG. 5b) ([3]; primary HTS, 10 μM)	LPS % cell toxicity (primary rat microglia [4]; [8]) [%]	Fibrin % cell toxicity (primary rat microglia [5]; [9]) [%]	Fibrin % inhibition [1, 10] [%]	LPS % inhibition [2, 11] [%]	Quadrant (FIG. 5b) [3, 12]	LPS % cell toxicity (primary rat microglia [4]; [13]) [%]	Fibrin % cell toxicity (primary rat microglia [5]; [14]) [%]	inhibition at 10 µM [1, 10] [%]	inhibition at 10 µM ([2]; 48 h, primary microglia HTS, LPS stimulation, increased cell size (>800 μm^2) as marker of activation) [%]	Fibrin % inhibition [1, 6] [%]	LPS % inhibition [2, 7] [%]
Cc1ccc2c(Cl)cc(Cl)c(O)c2n1 [Chlorquinaldol]	-14	15	Q4	0	1									
CN(C)[C@@H]1C(O)=C(C(N)=O)C(=O)[C@@]2(O)C(O)=C3C(=O)c4c(O)ccc(Cl)c4[C@@](C)(O)[C@H]3C[C@@H]12 [Chlortetracycline]	-15	-6	Q4	0	1									
CC(C)CCC[C@@H](C)[C@H]1CC[C@H]2[C@@H]3CC=C4C[C@@H](O)CC[C@]4(C)[C@H]3CC[C@]12C [Cholesterol]	4	9	Q4	0	0									
O=C(O)c1cc(=O)c2ccccc2o1 [Chromocarb]	-7	5	Q4	0	1									
Oc1cc(O)c2c(c1)O[C@H](c1ccc(O)c(O)c1)[C@@H](O)C2 [Cianidanol]	-19	7	Q4	0	0									
Cc1cc(C2CCCCC2)n(O)c(=O)c1 [Ciclopirox]	-1	40	Q4	1	1									
CCC(CC)(CC(=O)Nc1cccc(/C=C/c2nc(C3CCC3)cs2)c1)C(=O)O [Cinalukast]	-21	-8	Q4	0	1									
CCCCOc1cc(C(=O)NCCN(CC)CC)c2ccccc2n1 [Cinchocaine]	-57	7	Q4	0	0									
C=C[C@H]1CN2CC[C@H]1C[C@H]2[C@H](O)c1ccnc2ccccc12 [Cinchonidine]	13	4	Q4	0	1									
C=C[C@H]1C[N@@]2CC[C@H]1C[C@@H]2[C@@H](O)c1ccnc2ccccc12 [Cinchonine]	-6	28	Q4	0	1									
O=C(O)c1cc(-c2ccccc2)nc2ccccc12 [Cinchophen]	-9	36	Q4	0	1									
COc1cc(/C=C/C(=O)N2CCCCCCC2)cc(OC)c1OC [Cinoctramide]						90	53	Q2	1	4				
CCn1nc(C(=O)O)c(=O)c2cc3c(cc21)OCO3 [Cinoxacin]								Q2	12	50	117	115		
CCNC(=O)/C=C/c1cccc(Br)c1 [Cinromide]	-10	13	Q4	0	1									
COc1cc(/C=C/C(N)=O)cc(OC)c1OC [Cintriamide]	-2	15	Q4	0	1									
CC(=O)NC1CCSC1=O (stereo not shown) [Citiolone]	-32	7	Q4	0	0									
O=C(O)[C@H]1/C(=C/CO)O[C@@H]2CC(=O)N21 [Clavulanate]	-16	5	Q4	0	0									
C[N+]12CCC(CC1)C(OC(=O)C(O)(c1ccccc1)c1ccccc1)C2 (stereo not shown) [Clidinium Bromide]	-20	9	Q4	0	1									

Compound	inhibition at 10 µM [1, 6] [%]	inhibition at 10 µM [2, 7] [%]	Quadrant (FIG. 5b) ([3]; primary HTS, 10 μM)	LPS % cell toxicity (primary rat microglia [4]; [8]) [%]	Fibrin % cell toxicity (primary rat microglia [5]; [9]) [%]	Fibrin % inhibition [1, 10] [%]	LPS % inhibition [2, 11] [%]	Quadrant (FIG. 5b) [3, 12]	LPS % cell toxicity (primary rat microglia [4]; [13]) [%]	Fibrin % cell toxicity (primary rat microglia [5]; [14]) [%]	inhibition at 10 µM [1, 10] [%]	inhibition at 10 µM ([2]; 48 h, primary microglia HTS, LPS stimulation, increased cell size (>800 μm^2) as marker of activation) [%]	Fibrin % inhibition [1, 6] [%]	LPS % inhibition [2, 7] [%]
CC(C)(C)C(=O)C(Oc1ccc(Cl)cc1)n1ccnc1 (stereo not shown) [Climbazole]	-10	1	Q4	0	1									
Cl.NC1CCN(c2c(F)cc3c(=O)c(C(=O)O)cn(C4CC4)c3c2Cl)C1 (stereo not shown) [Clinafoxacin Hydrochloride]			Q4	0	0								−22	9
Oc1c(I)cc(Cl)c2cccnc12 [Clioquinol]	-11	22	Q4	1	1									
O=P(O)(O)C(Cl)(Cl)P(=O)(O)O [Clodronate]	-15	1	Q4	0	1									
CC(C)/N=c1\cc2n(-c3ccc(Cl)cc3)c3ccccc3nc-2cc1Nc1ccc(Cl)cc1 [Clofazimine]	23	15	Q4	0	1									
CCOC(=O)C(C)(C)Oc1ccc(Cl)cc1 [Clofibrate]	-20	18	Q4	1	0									
CC(C)(Oc1ccc(Cl)cc1)C(=O)O [Clofibric Acid]	-27	15	Q4	0	1									
CC(C)(C)CC(C)(C)c1ccc(O)c(Cc2ccc(Cl)cc2Cl)c1 [Clofoctol]	-26	2	Q4	0	0									
O=C1CN=C(c2ccccc2Cl)c2cc([N+](=O)[O-])ccc2N1 [Clonazepam]	-12	-9	Q4	0	0									
Cc1nc(C)c(Cl)c(O)c1Cl [Clopidol]	-41	9	Q4	0	1									
Cc1cc(C(C#N)c2ccc(Cl)cc2)c(Cl)cc1NC(=O)c1cc(I)cc(I)c1O (stereo not shown) [Closantel]	-9	5	Q4	0	0									
Cc1onc(-c2ccccc2Cl)c1C(=O)N[C@@H]1C(=O)N2[C@@H]1SC(C)(C)[C@@H]2C(=O)O [Cloxacillin]	-13	17	Q4	1	1									
Oc1ccc(Cl)c2cccnc12 [Cloxyquin]	-4	18	Q4	0	0									
C=C[C@@]1(C)CC(=O)[C@]2(O)[C@@]3(C)[C@@H](O)CCC(C)(C)[C@@H]3[C@H](O)[C@H](OC(C)=O)[C@@]2(C)O1 [Colforsin]	46	26	Q4	0	1									
CC[C@H](C)C(=O)O[C@H]1CCC=C2C=C[C@H](C)[C@H](CC[C@@H]3C[C@@H](O)CC(=O)O3)[C@H]21 [Compactin, Mevastatin]						105	89	Q2	2	3				
CC(=O)OCC(=O)[C@@]1(O)CC[C@H]2[C@@H]3CCC4=CC(=O)CC[C@]4(C)[C@H]3C(=O)C[C@@]21C [Cortisone Acetate]	0	7	Q4	0	1									
CN1C(=O)CC[C@H]1c1cccnc1 [Cotinine]	-39	6	Q4	1	1									
